# Results published in publication PMC9147274 (Pharmaceuticals, 2022).
# Columns and labels:
# HL-60 = assay: Cytotoxicity toward HL-60, XTT assay; type: cell-based, human; details: for IC50: Homo sapiens, HL-60, XTT, 48 h; for SI (HL-60): (IC50 for MRC-5)/(IC50 for HL-60)
# Protocol: (§1) DMSO was used as vehicle control. […] All experiments were performed in triplicate. […] Cells were exposed for 48 h.
# (§2) Table S1 The cytotoxicity of triazole-cored derivatives toward various human lung carcinoma cell lines A549, Thai human cholangiocarcinoma cells HuCCA-1, T-cell acute lymphoblastic leukemia MOLT-3, and acute promyelocytic leukemia HL-60. The inhibitory activities were indicated as IC50 in micromolar scale (µM). The calculated selectivity indices (SI) were reported in square brackets.
# (§3) Cancer Cell lines, IC50 (µM), [SI]
# [1] = Cytotoxicity toward MRC-5, MTT assay; type: cell-based; details: human, MRC-5 cells, MRC-5 normal cells
# Protocol: as §1
# HuCCA-1 = assay: Cytotoxicity toward HuCCA-1, MTT assay; type: cell-based, human; details: for IC50: Homo sapiens, HuCC-A1, HuCCA-1, MTT, 48 h
# Protocol: as §1, §2, §3
# MOLT-3 = assay: Cytotoxicity toward MOLT-3, XTT assay; type: cell-based, human; details: for IC50: Homo sapiens, MOLT-3, XTT, 48 h; for SI (MOLT-3): (IC50 for MRC-5)/(IC50 for MOLT-3)
# Protocol: as §1, §2, §3
# A549 = assay: Cytotoxicity toward A549, MTT assay; type: cell-based, human; details: for IC50: Homo sapiens, A549, MTT, 48 h
# Protocol: as §1, §2, §3
# HepG2 = assay: Cytotoxicity toward HepG2, MTT assay; details: for Selectivity index (SI): IC50 MRC-5 / IC50 HepG2; for IC50: read-out: Cytotoxicity HepG2 IC50, HepG2, MTT; for IC50 / Cytotoxicity HepG2 Cell Viability at 25 µM: 72 h; for Cytotoxicity HepG2 Cell Viability at 25 µM: HepG2, 25 µM, MTT
# Protocol: DMSO was used as vehicle control. […] All experiments were performed in triplicate. Data were expressed as the IC50 ± SD. […] Cells were exposed for 48 h.
# HepG2 cells [2] = assay: Cell morphology by light microscopy; details: 48 h, 2.5-10.0 µM
# HepG2 cells [3] = assay: Cell-cycle analysis (propidium iodide, flow cytometry); type: cell-based, human; details: HepG2, 2 µM, 72 h
# Protocol: The concentration of DMSO was kept at 0.5% v/v for all conditions. Cells were washed with PBS before they were harvested; 1 × 10^5 Cells were collected and fixed with 70% ice-cold ethanol, and then washed twice with ice-cold PBS. Afterward, the cells were treated with 100 g/mL of DNase-free RNase A (Sigma-Aldrich, St. Louis, MO, USA) in PBS containing 0.1% v/v Triton-X 100 (Sigma-Aldrich, St. Louis, MO, USA) for 5 min at room temperature and then stained with 20 g/mL propidium iodide (Life Technologies, Carlsbad, CA, USA) in PBS containing 0.1% v/v Triton-X 100 for 15 min at room temperature while protected from light. Cell-cycle distribution was then analyzed with a flow cytometer (Attune NxT, Thermo Fischer Scientific, Waltham, MA, USA). Data were analyzed with Attune NxT Software (Thermo Fischer Scientific, Waltham, MA, USA). All experiments were performed in triplicate. Student’s t-test was used for statistical analysis; p < 0.05 was considered statistically significant [96].
# HepG2 cells [4] = assay: Detection of apoptosis (Muse Annexin V & Dead Cell Kit); type: cell-based, human; details: 48 h; for average percentage of apoptotic cells (total, early and late apoptosis): untreated 22.35 ± 0.07%
# Protocol: Based on annexin V reactivity and the intensity of the 7-AAD fluorescence, cells can be classified into four categories: dead, live, early apoptosis, and late apoptosis. […] The detection of apoptosis was performed by the Muse® Annexin V & Dead Cell Kit according to the manufacturer’s protocol (Millipore, Billerica, MA, USA). […] An amount of 100 µL of HepG2 cells in suspension and 100 µL of Muse Annexin V & Dead Cell reagent were added to a 1.5 mL tube. The apoptosis was measured using the Muse cell analyzer and Muse analysis software (Millipore, Billerica, MA, USA). Cells were classified into four groups: live (Annexin V− and 7-AAD−), early apoptosis (Annexin V+ and 7-AAD−), late apoptosis (Annexin V+ and 7-AAD+), and dead or necrotic (Annexin V− and 7-AAD+). The apoptosis experiment was performed in duplicate.
# [5] = cited from earlier work
Compound,IC50 (HL-60) [µM],IC50 at 48 h [1] [µM],IC50 (HuCCA-1) [µM],IC50 (MOLT-3) [µM],IC50 (A549) [µM],further results
O=C(NCc1cn(-c2ccccc2Br)nn1)Nc1ccc(Cl)c(C(F)(F)F)c1 [Compound 2h],37.7 ± 3.88,52.9 ± 3.1,,,,
Cc1ccccc1-n1cc(CNC(=O)Nc2ccc(Cl)c(C(F)(F)F)c2)nn1 [Compound 2t],45 ± 4.03,61.7 ± 3.22,,,,
COc1ccc(-n2cc(CNC(=O)Nc3ccc(Cl)c(C(F)(F)F)c3)nn2)cc1 [Compound 2s],> 100,21.2 ± 2.51,,,,
O=C(NCc1cn(-c2cccc(Br)c2)nn1)Nc1ccc(Cl)c(C(F)(F)F)c1 [Compound 2i],35.75 ± 0.34,53 ± 3.31,,,,
O=C(NCc1cn(-c2ccc(Br)cc2)nn1)Nc1ccc(Cl)c(C(F)(F)F)c1 [Compound 2j],76 ± 22.6,60.7 ± 1.88,10.8 ± 0.36,53.4 ± 24.3,33.8 ± 2.29,
O=C(NCc1cn(-c2ccc(O)cc2)nn1)Nc1ccc(Cl)c(C(F)(F)F)c1 [Compound 2p],32.9 ± 7.77,69.6 ± 5.66,87.43 ± 0.79,22.5 ± 1.85,85.9 ± 7.24,
O=C(NCc1cn(-c2cccc(I)c2)nn1)Nc1ccc(Cl)c(C(F)(F)F)c1 [Compound 2l],33.2 ± 0.58,49.2 ± 2.13,,,,
"O=C(NCc1cn(-c2ccccc2F)nn1)Nc1ccc(Cl)c(C(F)(F)F)c1 [Compound 2b, 1-(4-chloro-3-(trifluoromethyl)phenyl)-3-((1-(2-fluorophenyl)-1H-1,2,3-triazol-4-yl)methyl)urea]",,,,,,melting point: 168 to 169 °C
O=C(NCc1cn(-c2ccccc2F)nn1)Nc1ccc(Cl)c(C(F)(F)F)c1 [Compound 2b],40.6 ± 4.64,73.5 ± 9.14,69.2 ± 19.2,25.3 ± 1.38,77.3 ± 1.76,
"O=C(NCc1cn(-c2ccc(C(F)(F)F)cc2)nn1)Nc1ccc(Cl)c(C(F)(F)F)c1 [Compound 2y, 1-(4-chloro-3-(trifluoromethyl)phenyl)-3-((1-(4-(trifluoromethyl)phenyl)-1H-1,2,3-triazol-4-yl)methyl)urea]",19.4 ± 0.5,58.6 ± 3.51,,18.1 ± 0.45,,SI (HL-60) (HL-60): 3.02; melting point: 199 to 200 °C; SI (MOLT-3) (MOLT-3): 3.23; Selectivity index (SI) (HepG2): 9.81; IC50 (HepG2): 5.97 ± 2.14 µM
O=C(NCc1cn(-c2ccc(I)cc2)nn1)Nc1ccc(Cl)c(C(F)(F)F)c1 [Compound 2m],49.8 ± 7.19,49.9 ± 6.61,,29.9 ± 1.51,,
COc1ccccc1-n1cc(CNC(=O)Nc2ccc(Cl)c(C(F)(F)F)c2)nn1 [Compound 2q],42.4 ± 2.18,68 ± 5.14,,,,
Cc1ccc(-n2cc(CNC(=O)Nc3ccc(Cl)c(C(F)(F)F)c3)nn2)cc1 [Compound 2v],> 100,99.9 ± 0.9,,91.1 ± 1.66,,
COc1cccc(-n2cc(CNC(=O)Nc3ccc(Cl)c(C(F)(F)F)c3)nn2)c1 [Compound 2r],42.8 ± 1.95,76.1 ± 9.18,,,,
O=C(NCc1cn(-c2ccc(F)cc2)nn1)Nc1ccc(Cl)c(C(F)(F)F)c1 [Compound 2d],35 ± 9.04,59.3 ± 1.96,55.4 ± 6.49,20.5 ± 1.23,57.4 ± 8.36,
O=C(NCc1cn(-c2ccccc2O)nn1)Nc1ccc(Cl)c(C(F)(F)F)c1 [Compound 2n],51.1 ± 1.77,,,39.4 ± 3.52,,
"CC(=O)Nc1ccc(-n2cc(CNC(=O)Nc3ccc(Cl)c(C(F)(F)F)c3)nn2)cc1 [Compound 2u, N-(4-(4-((3-(4-chloro-3-(trifluoromethyl)phenyl)ureido)methyl)-1H-1,2,3-triazol-1-yl)phenyl)acetamide]",,,,,,melting point: 238 to 239 °C
O=C(NCc1cn(-c2ccccc2)nn1)Nc1ccc(Cl)c(C(F)(F)F)c1 [Compound 2a],> 100,> 100,> 100,> 100,> 100,
"O=C(NCc1cn(-c2cccc(C(F)(F)F)c2)nn1)Nc1ccc(Cl)c(C(F)(F)F)c1 [Compound 2x, 1-(4-chloro-3-(trifluoromethyl)phenyl)-3-((1-(3-(trifluoromethyl)phenyl)-1H-1,2,3-triazol-4-yl)methyl)urea]",28.8 ± 7.46,63.2 ± 1.57,,27.8 ± 4.56,,SI (HL-60) (HL-60): 2.19; melting point: 152 to 153 °C; SI (MOLT-3) (MOLT-3): 2.28; Cytotoxicity HepG2 Cell Viability at 25 µM (HepG2): 81%
CNC(=O)c1cc(Oc2ccc(NC(=O)Nc3ccc(Cl)c(C(F)(F)F)c3)cc2)ccn1 [Sorafenib],5.35 ± 0.38,19.7 ± 1.68,33.2 ± 1.45,,19.65 ± 0.01,"Cell morphology changes of HepG2 (HepG2 cells [2]): cell morphology changes (shrink and smaller in size) were observed after treating HepG2 with Sorafenib at 5.0 µM and 10.0 µM; Effect on cell cycle (HepG2 cells [3]): induced S and G2/M phase cell-cycle arrest; Late Apop./Dead (late stage apoptotic cells) (HepG2 cells [4]; HepG2, 2.5 µM): 7.60%; average percentage of apoptotic cells (total, early and late apoptosis) (HepG2 cells [4]; HepG2, 2.5 µM): 24.55 ± 0.28%; Late Apop./Dead (late stage apoptotic cells) (HepG2 cells [4]; HepG2, 10.0 µM): 13.65%; average percentage of apoptotic cells (total, early and late apoptosis) (HepG2 cells [4]; HepG2, 10.0 µM): 46.45 ± 0.78%; bioavailability [5]: 38–49%; IC50 (HepG2): 5.97 ± 0.71 µM"
Cc1cccc(-n2cc(CNC(=O)Nc3ccc(Cl)c(C(F)(F)F)c3)nn2)c1 [Compound 2u],> 100,,,,,
"COc1cccc2c1C(=O)c1c(O)c3c(c(O)c1C2=O)C[C@@](O)(C(=O)CO)C[C@@H]3O[C@H]1C[C@H](N)[C@H](O)[C@H](C)O1 [Doxorubicin, reference compound]",0.12 ± 0.02,2.26,1.21 ± 0.04,0.01,0.47 ± 0.02,SI (HL-60) (HL-60): 18.83; SI (HuCCA-1) (HuCCA-1; (IC50 for MRC-5)/(IC50 for HuCCA-1)): 1.87; SI (MOLT-3) (MOLT-3): 226; SI (A549) (A549; (IC50 for MRC-5)/(IC50 for A549)): 4.81; Selectivity index (SI) (HepG2): 3.83; IC50 (HepG2): 0.59 ± 0.1 µM
O=C(NCc1cn(-c2ccc(Cl)cc2)nn1)Nc1ccc(Cl)c(C(F)(F)F)c1 [Compound 2g],> 100,14.6 ± 4.17,33.6 ± 1.83,> 100,83 ± 2.7,
"N#Cc1ccccc1-n1cc(CNC(=O)Nc2ccc(Cl)c(C(F)(F)F)c2)nn1 [Compound 2z, 1-(4-chloro-3-(trifluoromethyl)phenyl)-3-((1-(2-cyanophenyl)-1H-1,2,3-triazol-4-yl)methyl)urea]",56.4 ± 10.9,59.7 ± 6.63,,,,SI (HL-60) (HL-60): 1.06; melting point: 162 to 163 °C; Cytotoxicity HepG2 Cell Viability at 25 µM (HepG2): 66%
O=C(NCc1cn(-c2cccc(O)c2)nn1)Nc1ccc(Cl)c(C(F)(F)F)c1 [Compound 2o],39.2 ± 2.72,,,28.3 ± 4.51,,
O=C(NCc1cn(-c2ccccc2I)nn1)Nc1ccc(Cl)c(C(F)(F)F)c1 [Compound 2k],37.4 ± 2.36,49.1 ± 2.95,,,,
O=C(NCc1cn(-c2ccccc2Cl)nn1)Nc1ccc(Cl)c(C(F)(F)F)c1 [Compound 2e],52.1 ± 13.9,61.4 ± 3.51,,,,
O=C(NCc1cn(-c2cccc(F)c2)nn1)Nc1ccc(Cl)c(C(F)(F)F)c1 [Compound 2c],34.1 ± 11.3,61.6 ± 3.63,44.9 ± 3.84,18.4 ± 0.36,69.4 ± 2.44,
O=C(NCc1cn(-c2ccccc2C(F)(F)F)nn1)Nc1ccc(Cl)c(C(F)(F)F)c1 [Compound 2w],34.5 ± 0.73,58.8 ± 0.39,,30.6 ± 0.8,,
O=C(NCc1cn(-c2cccc(Cl)c2)nn1)Nc1ccc(Cl)c(C(F)(F)F)c1 [Compound 2f],37.5 ± 2.23,63.8 ± 3.53,,,,
